What was measured:
[1] = Preparation of liposome from mixed lipid (dispersion in water, high-pressure extrusion); format: physicochemical; conditions: mixed lipid compound/cholesterol/PEG-Glu2C18 dispersed in water, high-pressure extrusion 0.22 μm
Procedure: (§1) Compound 7, 8 or 9 (0.177 mmol), cholesterol (0.179 mmol) and PEG-Glu2C18 (1.0 μmol) were dissolved in benzene, and the mixture was freeze-dried to prepare a mixed lipid. 20 mg of this mixed lipid was dispersed in 1 mL of water for injection, and the resultant mixture was stirred for 6 hours. After that, liposome having a particle size of about 240 nm was prepared by means of the high-pressure extrusion method (final pore diameter: 0.22 μm).
as §1, with “Compound 3, 12” for “Compound 7, 8”, “or 13” for “or 9”, “(1.0 mmol)” for “(1.0 μmol)”

[2] = Measurement of zeta potential of liposomes; format: physicochemical; conditions: liposome compound/cholesterol/PEG-Glu2C18 (5/5/0.03 molar ratio); acetate buffers 20 mM; 37°C
Procedure: Portions of the prepared liposome ([lipid]=10 mg/ml) were respectively added to acetate buffers with different pHs (7.4, 7, 6, 5, 4) (30 mM) to the final concentration of [lipid]=1 mg/mL, and then the zeta potential at 37° C. was measured. Zetasizer 4 manufactured by Malvern was used. A capillary cell was filled with a liposome-dispersed liquid obtained by dilution to the measurement concentration, and the measurement was performed at 37° C. 3 times.
Portions of the prepared liposome ([lipid]=10 mg/ml) were respectively added to acetate buffers with different pHs (7.4, 7, 6, 5, 4) (20 mM) to the final concentration of [lipid]=1 mg/mL, and then the zeta potential at 37° C. was measured.
Portions of each of the prepared liposomes ([lipid]=10 mg/ml) were respectively added to acetate buffers with different pHs (7.4, 7, 6, 5, 4) (20 mM) to the final concentration of [lipid]=1 mg/mL, and then the zeta potential at 37° C. was measured.

[3] = Degree of fusion with anionic liposome (Example 9); conditions: liposome compound/cholesterol/PEG-Glu2C18, 37°C, 30 minutes
Procedure: In a manner similar to that in Example 2, the degree of fusion of the pH-responsive liposome with respect to the anionic liposome (DOPC/DPPG, 5/1 (molar ratio)) was calculated. The measurement method was as follows. 50 μL of 1 mM anionic liposome and 50 μL of 9 mM (converted to the mixed lipid basis) pH-responsive liposome were added to 1.9 mL of each of acetate buffers with different pHs and allowed to stand at 37° C. 30 minutes later, […] of the mixture was dividedly poured and added to 1.9 mL of HEPES buffer (pH 7.4). The resultant mixture was transferred to a quartz cell and subjected to fluorescence measurement (λex: 460 nm, 530 nm). The measurement was carried out using RF-5300PC manufactured by Shimadzu.

Compound	liposome formation with the compound as main component [1]	pH at which the zeta potential changed from negative to positive [2]	degree of fusion ([3]; pH 6.5 (maximum))	degree of fusion ([3]; pH 7.4)
CCCCCCCCCCCCCCCCOC(=O)CCC(NC(=O)C(CCCCNC(=O)C(N)CC(=O)O)NC(=O)C(N)CCC(=O)O)C(=O)OCCCCCCCCCCCCCCCC (stereo not shown) [Compound 7]	liposome was formed	about 5.5	–	–
CCCCCCCCCCCCCCCCOC(=O)CCC(NC(=O)C(CCCCNC(=O)C(N)CCC(=O)O)NC(=O)C(N)CC(=O)O)C(=O)OCCCCCCCCCCCCCCCC (stereo not shown) [Compound 8]	liposome was formed	about 4.8	–	–
CCCCCCCCCCCCCCCCOC(=O)CCC(NC(=O)C(CCCCNC(=O)C(N)CC(=O)O)NC(=O)C(N)CC(=O)O)C(=O)OCCCCCCCCCCCCCCCC (stereo not shown) [Compound 9]	aggregated	–	–	–
CCCCCCCCCCCCCCOC(=O)CCC(NC(=O)C(CCCCNC(=O)C(N)CCC(=O)O)NC(=O)C(N)CCC(=O)O)C(=O)OCCCCCCCCCCCCCC (stereo not shown) [Compound 12]	liposome was formed	about 7.0	over 65%	about 45%
CCCCCCCCCCCCCCCCCCOC(=O)CCC(NC(=O)C(CCCCNC(=O)C(N)CCC(=O)O)NC(=O)C(N)CCC(=O)O)C(=O)OCCCCCCCCCCCCCCCCCC (stereo not shown) [Compound 13]	poor dispersibility	–	–	–

Reference: patent US8241647B2, “Amphiphilic molecule, molecular assembly comprising the amphiphilic molecule, and use of the molecular assembly” (Waseda University, priority 2007, dated 2012)
